Experimental data: US8575091B1, “Amylin analogues and pharmaceutical compositions thereof” (Novo Nordisk A/S, priority 2012, dated 2013)
Numbered stars: 1 amine (or outer) side, 2 acyl side, 3 side chain; on linkers, the order of the positions; unused ones are H or OH. Bridge positions count the residues as written; N and C are the ends. Side chains are listed from the residue outwards. Peptide text beside a SMILES is read from it. * marks the point of attachment. C20 diacid = O=C(O)CCCCCCCCCCCCCCCCCCC(=O)*; γGlu = O=C(O)[C@H](CCC(=O)[*:2])N[*:1]

Tests used:
[1] = biological target: T1, human amylin receptor (amylin 3(a) receptor: human calcitonin receptor + RAMP-3) (Homo sapiens, UniProt O60896+P30988); assay: Assay (II)a functional assay, human amylin receptor (CRE luciferase, BHK cells); assay type: cell-based; settings: for EC50: functional assay, human amylin receptor, read-out: hAmylin-R funct. EC50
T1 construct: expressed in transfected cells
T1 sequence (P30988 25-474): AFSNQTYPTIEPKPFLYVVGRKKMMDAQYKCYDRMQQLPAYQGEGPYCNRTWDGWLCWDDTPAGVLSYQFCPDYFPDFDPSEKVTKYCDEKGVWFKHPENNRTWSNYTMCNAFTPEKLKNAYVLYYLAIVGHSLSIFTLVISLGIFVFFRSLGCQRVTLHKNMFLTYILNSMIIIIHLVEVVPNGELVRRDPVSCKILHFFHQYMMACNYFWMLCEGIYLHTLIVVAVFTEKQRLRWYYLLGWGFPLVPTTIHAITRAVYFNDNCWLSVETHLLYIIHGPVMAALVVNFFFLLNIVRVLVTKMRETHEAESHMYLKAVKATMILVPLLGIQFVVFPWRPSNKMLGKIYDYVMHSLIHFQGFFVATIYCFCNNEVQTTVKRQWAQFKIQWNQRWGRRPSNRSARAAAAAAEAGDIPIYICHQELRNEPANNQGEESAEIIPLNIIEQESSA
T1 sequence (O60896 24-148 partner): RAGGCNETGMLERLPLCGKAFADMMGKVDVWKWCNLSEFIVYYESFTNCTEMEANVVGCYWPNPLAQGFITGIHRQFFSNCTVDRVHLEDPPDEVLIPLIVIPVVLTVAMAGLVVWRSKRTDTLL

[2] = biological target: T2, human calcitonin receptor (Homo sapiens, UniProt P30988); assay: Assay (II)a functional assay, human calcitonin receptor (CRE luciferase, BHK cells);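 note: luminescence from a CRE-driven luciferase reporter, read by single photon counting after cells were exposed to test samples for 3 h at 37 °C under 5% CO2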; assay type: cell-based; settings: read-out: hCTR funct. EC50
T2 construct: expressed in transfected cells
T2 sequence (P30988 25-474): T1 sequence (P30988 25-474)

human amylin receptor = biological target: T3, human amylin receptor (Homo sapiens, UniProt O60896+P30988); assay: Assay (V) binding to the human amylin receptor (SPA, 125I-rat amylin); settings: human amylin receptor membranes, SPA; read-out: hAmylin-R bind IC50
T3 construct: expressed in transfected cells
T3 sequence (P30988 25-474): T1 sequence (P30988 25-474)
T3 sequence (O60896 24-148 partner): T1 sequence (O60896 24-148 partner)
Procedure, shortened: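 IC50, taken as receptor affinity, came from one-site binding competition analysis of scintillation proximity counts. Amylin 3(a)/CRE-luc cell membranes (35 ng/μL final) were mixed with SPA beads (0.05 mg/well) in 50 mM Hepes pH 7.4 containing CaCl2, MgCl2, 0.1% OA and 0.02% Tween20.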

[3] = biological target: T2, human calcitonin receptor; assay: Assay (VII) binding to the human calcitonin receptor (SPA, 125I-Calcitonin); settings: read-out: hCTR bind IC50;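 note: cell membranes coupled to SPA beads, competitive displacement read by scintillation counting, IC50 derived from a one-site competition fit as a measure of receptor affinity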
Wistar rats = assay: Assay (XII) single subcutaneous administration, plasma calcium in rats; assay type: in vivo, rat; settings: for Plasma calcium red (%) 0-12 h: single s.c., maximal reduction 0-12 h, compared to vehicle; for suppression of plasma calcium level relative to vehicle: single subcutaneous, over 24 hours
Protocol: Assay (XII)—Effect from Single Subcutaneous Administration of Analogue on Plasma Calcium in Rats
Male Wistar rats (Taconic Europe, ˜250 g at test date) were acclimatized to handling prior to the study. Rats were divided in groups of five and subcutaneously dosed with test compound at time=0. At time T=−15 min; 1 h, 2 h, 4 h, 7 h, 12 h, and 24 h a blood sample was obtained and heparin stabilized plasma was analysed for total calcium (Cobas, Hitachi). Data are illustrated in graphs as mean±SEM.

rat amylin receptor = biological target: T4, rat amylin receptor (Rattus norvegicus, UniProt P32214+Q9JJ73); assay: Assay (VI) binding to the rat amylin receptor; settings: rCTR bind IC50 divided by rAmylin-R bind IC50
T4 construct: expressed in transfected cells; host or cells: BHK tk'ts 13 (transient, FuGENE 6), membranes
T4 sequence (P32214 25-479 isoform P32214-2 limits assumed): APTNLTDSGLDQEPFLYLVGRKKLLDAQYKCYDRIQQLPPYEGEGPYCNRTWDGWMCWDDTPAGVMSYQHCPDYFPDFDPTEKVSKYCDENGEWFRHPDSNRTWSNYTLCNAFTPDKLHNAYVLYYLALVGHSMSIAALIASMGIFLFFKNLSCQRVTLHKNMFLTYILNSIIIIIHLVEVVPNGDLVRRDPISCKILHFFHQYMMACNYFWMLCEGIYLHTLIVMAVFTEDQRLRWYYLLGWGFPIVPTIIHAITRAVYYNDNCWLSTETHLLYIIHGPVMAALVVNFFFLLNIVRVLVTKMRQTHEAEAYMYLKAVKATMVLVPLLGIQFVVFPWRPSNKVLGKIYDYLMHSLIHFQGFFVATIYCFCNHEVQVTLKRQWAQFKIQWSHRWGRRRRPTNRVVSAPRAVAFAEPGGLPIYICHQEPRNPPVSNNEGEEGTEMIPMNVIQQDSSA
T4 sequence (Q9JJ73 23-147 partner): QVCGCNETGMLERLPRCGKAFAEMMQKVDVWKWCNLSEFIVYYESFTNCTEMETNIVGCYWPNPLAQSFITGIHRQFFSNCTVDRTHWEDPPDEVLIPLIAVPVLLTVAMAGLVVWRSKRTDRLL
Procedure, shortened: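 Binding as in the human amylin receptor binding assay, but with membranes from BHK tk'ts 13 cells transiently co-transfected with rat calcitonin receptor and rat RAMP 3 […]. Membranes were prepared from cells harvested about 48 hours after transfection.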

Structure (SMILES)	EC50 [1] [nM]	EC50 [2] [nM]	IC50 (human amylin receptor) [nM]	IC50 [3] [nM]	Plasma calcium red (%) 0-12 h (Wistar rats; 100 nmol/kg) [%]	suppression of plasma calcium level relative to vehicle (Wistar rats; 100 nmol/kg)	Ratio hCT/hAmylin funct. ([1]; Table 6, human functional selectivity (hCTR EC50 / hAmylin-R EC50))	Ratio hCT/hAmylin funct. ([1]; Table 6a, human functional selectivity (hCTR EC50 / hAmylin-R EC50), at least 5)	Ratio hCT/hAmylin funct. ([1]; Table 6i, hCTR funct. EC50 / hAmylin-R funct. EC50)	Ratio hCT/hAmylin funct. ([1]; Table 6j, hCTR funct. EC50 / hAmylin-R funct. EC50)	Ratio hCT/hAmylin funct. ([1]; Table 6k, hCTR funct. EC50 / hAmylin-R funct. EC50)	Plasma calcium red (%) 0-12 h (Wistar rats; 30 nmol/kg) [%]	suppression of plasma calcium level relative to vehicle (Wistar rats; 30 nmol/kg)	Ratio rCT/rAmylin binding (rat amylin receptor; Table 7b)	Ratio rCT/rAmylin binding (rat amylin receptor; Table 7c)	Ratio rCT/rAmylin binding (rat amylin receptor)	Plasma calcium red (%) 0-12 h (Wistar rats; 10 nmol/kg) [%]
CC[C@H](C)[C@H](NC(=O)[C@H](C)NC(=O)CNC(=O)[C@H](Cc1ccccc1)NC(=O)[C@H](CC(N)=O)NC(=O)[C@@H]1CCCN1C(=O)[C@H](CO)NC(=O)[C@H](CO)NC(=O)[C@H](Cc1c[nH]cn1)NC(=O)[C@H](CCCNC(=N)N)NC(=O)[C@H](CC(C)C)NC(=O)[C@H](Cc1ccccc1)NC(=O)[C@H](CC(=O)O)NC(=O)[C@H](C)NC(=O)[C@H](CC(C)C)NC(=O)[C@H](CCCNC(=N)N)NC(=O)[C@H](CCC(N)=O)NC(=O)[C@@H](NC(=O)[C@H](C)NC(=O)[C@@H]1CSSC[C@H](NC(=O)[C@@H](N)CCCCNC(=O)CC[C@H](NC(=O)CC[C@H](NC(=O)CCCCCCCCCCCCCCCCCCC(=O)O)C(=O)O)C(=O)O)C(=O)N[C@@H](CC(N)=O)C(=O)N[C@@H]([C@@H](C)O)C(=O)N[C@@H](C)C(=O)N[C@@H]([C@@H](C)O)C(=O)N1)[C@@H](C)O)C(=O)N1CCC[C@H]1C(=O)N[C@@H](CO)C(=O)N[C@@H](CO)C(=O)N[C@H](C(=O)N[C@@H](CC(N)=O)C(=O)N[C@H](C(=O)NCC(=O)N[C@@H](CO)C(=O)N[C@@H](CC(=O)O)C(=O)N[C@H](C(=O)N[C@@H](Cc1ccc(O)cc1)C(N)=O)[C@@H](C)O)C(C)C)[C@@H](C)O [Example 2] (H-K([γGlu-γGlu-C20 diacid])CNTATCATQRLADFLRHSSPNFGAIPSSTNVGSDTY-NH2; disulfide 2-7)	0.182	3	0.411	19.5	9	does not trigger a notable suppression of the calcium level											
CC[C@H](C)[C@H](NC(=O)[C@H](C)NC(=O)CNC(=O)[C@H](Cc1ccccc1)NC(=O)[C@H](CC(N)=O)NC(=O)[C@@H]1CCCN1C(=O)[C@H](CO)NC(=O)[C@H](CO)NC(=O)[C@H](Cc1c[nH]cn1)NC(=O)[C@H](CCCNC(=N)N)NC(=O)[C@H](CC(C)C)NC(=O)[C@H](Cc1ccccc1)NC(=O)[C@H](CCC(=O)O)NC(=O)[C@H](C)NC(=O)[C@H](CC(C)C)NC(=O)[C@H](CCCNC(=N)N)NC(=O)[C@H](CCC(N)=O)NC(=O)[C@@H](NC(=O)[C@H](C)NC(=O)[C@@H]1CSSC[C@H](NC(=O)[C@@H](N)CCCCNC(=O)CC[C@H](NC(=O)CCCCCCCCCCCCCCCCCCC(=O)O)C(=O)O)C(=O)N[C@@H](CC(N)=O)C(=O)N[C@@H]([C@@H](C)O)C(=O)N[C@@H](C)C(=O)N[C@@H]([C@@H](C)O)C(=O)N1)[C@@H](C)O)C(=O)N1CCC[C@H]1C(=O)N[C@@H](CO)C(=O)N[C@@H](CO)C(=O)N[C@H](C(=O)N[C@@H](CC(N)=O)C(=O)N[C@H](C(=O)NCC(=O)N[C@@H](CO)C(=O)N[C@@H](CCCNC(=N)N)C(=O)N[C@H](C(=O)N[C@@H](Cc1ccc(O)cc1)C(N)=O)[C@@H](C)O)C(C)C)[C@@H](C)O [Example 51] (H-K([γGlu-C20 diacid])CNTATCATQRLAEFLRHSSPNFGAIPSSTNVGSRTY-NH2; disulfide 2-7)	0.372	5.22	0.828	31.1			14.0	14.0	14.0	14.0	14.0	10	None of the example compounds at 30 nmol/kg trigger a notable suppression of the calcium level				
CC[C@H](C)[C@H](NC(=O)[C@H](C)NC(=O)CNC(=O)[C@H](Cc1ccccc1)NC(=O)[C@H](CC(N)=O)NC(=O)[C@@H]1CCCN1C(=O)[C@H](CO)NC(=O)[C@H](CO)NC(=O)[C@H](Cc1c[nH]cn1)NC(=O)[C@H](CCCNC(=N)N)NC(=O)[C@H](CC(C)C)NC(=O)[C@H](Cc1ccccc1)NC(=O)[C@H](CCC(=O)O)NC(=O)[C@H](C)NC(=O)[C@H](CC(C)C)NC(=O)[C@H](CCCNC(=N)N)NC(=O)[C@H](CCC(N)=O)NC(=O)[C@@H](NC(=O)[C@H](C)NC(=O)[C@@H]1CSSC[C@H](NC(=O)[C@@H](N)CCCCNC(=O)CC[C@H](NC(=O)CCCCCCCCCCCCCCCCCCC(=O)O)C(=O)O)C(=O)N[C@@H](CC(N)=O)C(=O)N[C@@H]([C@@H](C)O)C(=O)N[C@@H](C)C(=O)N[C@@H]([C@@H](C)O)C(=O)N1)[C@@H](C)O)C(=O)N1CCC[C@H]1C(=O)N[C@@H](CO)C(=O)N[C@@H](CO)C(=O)N[C@H](C(=O)N[C@@H](CC(N)=O)C(=O)N[C@H](C(=O)NCC(=O)N1CCC[C@H]1C(=O)N[C@@H](Cc1c[nH]cn1)C(=O)N[C@H](C(=O)N[C@@H](Cc1ccc(O)cc1)C(N)=O)[C@@H](C)O)C(C)C)[C@@H](C)O [Example 118] (H-K([γGlu-C20 diacid])CNTATCATQRLAEFLRHSSPNFGAIPSSTNVGPHTY-NH2; disulfide 2-7)	0.101	1.45	0.179	3.8								26					
CC[C@H](C)[C@H](NC(=O)[C@H](C)NC(=O)CNC(=O)[C@H](Cc1ccccc1)NC(=O)[C@H](CC(N)=O)NC(=O)[C@@H]1CCCN1C(=O)[C@H](CO)NC(=O)[C@H](CO)NC(=O)[C@H](Cc1c[nH]cn1)NC(=O)[C@H](CCCNC(=N)N)NC(=O)[C@H](CC(C)C)NC(=O)[C@H](Cc1ccccc1)NC(=O)[C@H](CCC(=O)O)NC(=O)[C@H](C)NC(=O)[C@H](CC(C)C)NC(=O)[C@H](CCCNC(=N)N)NC(=O)[C@H](CCC(N)=O)NC(=O)[C@@H](NC(=O)[C@H](C)NC(=O)[C@@H]1CSSC[C@H](NC(=O)[C@@H](N)CCCCNC(=O)CC[C@H](NC(=O)CC[C@H](NC(=O)CCCCCCCCCCCCCCCCCCC(=O)O)C(=O)O)C(=O)O)C(=O)N[C@@H](CC(N)=O)C(=O)N[C@@H]([C@@H](C)O)C(=O)N[C@@H](C)C(=O)N[C@@H]([C@@H](C)O)C(=O)N1)[C@@H](C)O)C(=O)N1CCC[C@H]1C(=O)N[C@@H](CO)C(=O)N[C@@H](CO)C(=O)N[C@H](C(=O)N[C@@H](CC(N)=O)C(=O)N[C@H](C(=O)NCC(=O)N1CCC[C@H]1C(=O)N[C@@H](Cc1c[nH]cn1)C(=O)N[C@H](C(=O)N[C@@H](Cc1ccc(O)cc1)C(N)=O)[C@@H](C)O)C(C)C)[C@@H](C)O [Example 124] (H-K([γGlu-γGlu-C20 diacid])CNTATCATQRLAEFLRHSSPNFGAIPSSTNVGPHTY-NH2; disulfide 2-7)	0.172	2.83	0.377	10.3								11		73.0	73.0	73.0	3
